Experimental data published in the supplement of paper PMC13380429.

How the values were obtained:
Settings in all cases: 72 h
Caco-2 [1] = assay: cell viability relative to DMSO; higher = less toxic
Calu-3 [2] = assay: as above
HepG2 [3] = assay: as above
U2OS [4] = assay: as above
Vero E6 [5] = assay: as above
Caco-2 [6] = assay: relative viability EC50 (midpoint between 100% and the lowest measured viability); higher = less toxic
Calu-3 [7] = assay: as above
HepG2 [8] = assay: as above
U2OS [9] = assay: as above
Vero E6 [10] = assay: as above
Caco-2 [11] = assay: drug sensitivity score (DSS) for viability; higher = more toxic; extreme values may be limits of the assay
Calu-3 [12] = assay: as above
HepG2 [13] = assay: as above
U2OS [14] = assay: as above
Vero E6 [15] = assay: as above

| SMILES | cell viability (Caco-2 [1]; 1 nM) | cell viability (Caco-2 [1]; 10 nM) | cell viability (Caco-2 [1]; 100 nM) | cell viability (Caco-2 [1]; 1000 nM) | cell viability (Caco-2 [1]; 10000 nM) | cell viability (Calu-3 [2]; 1 nM) | cell viability (Calu-3 [2]; 10 nM) | cell viability (Calu-3 [2]; 100 nM) | cell viability (Calu-3 [2]; 1000 nM) | cell viability (Calu-3 [2]; 10000 nM) | cell viability (HepG2 [3]; 1 nM) | cell viability (HepG2 [3]; 10 nM) | cell viability (HepG2 [3]; 100 nM) | cell viability (HepG2 [3]; 1000 nM) | cell viability (HepG2 [3]; 10000 nM) | cell viability (U2OS [4]; 1 nM) | cell viability (U2OS [4]; 10 nM) | cell viability (U2OS [4]; 100 nM) | cell viability (U2OS [4]; 1000 nM) | cell viability (U2OS [4]; 10000 nM) | cell viability (Vero E6 [5]; 1 nM) | cell viability (Vero E6 [5]; 10 nM) | cell viability (Vero E6 [5]; 100 nM) | cell viability (Vero E6 [5]; 1000 nM) | cell viability (Vero E6 [5]; 10000 nM) | relative viability EC50 (Caco-2 [6]) | relative viability EC50 (Calu-3 [7]) | relative viability EC50 (HepG2 [8]) | relative viability EC50 (U2OS [9]) | relative viability EC50 (Vero E6 [10]) | drug sensitivity score (Caco-2 [11]) | drug sensitivity score (Calu-3 [12]) | drug sensitivity score (HepG2 [13]) | drug sensitivity score (U2OS [14]) | drug sensitivity score (Vero E6 [15]) |
| --- | --- | --- | --- | --- | --- | --- | --- | --- | --- | --- | --- | --- | --- | --- | --- | --- | --- | --- | --- | --- | --- | --- | --- | --- | --- | --- | --- | --- | --- | --- | --- | --- | --- | --- | --- |
| CN1CCN(c2ccc(-c3cccc(CN4CCOCC4)c3)cc2NC(=O)c2c[nH]c(=O)cc2C(F)(F)F)CC1 [OICR-9429] | 106% | 97.7% | 94.1% | 92% | 98.2% | 97% | 108% | 98% | 104% | 88.3% | 108% | 98.7% | 99.7% | 95.8% | 95% | 102% | 98.2% | 99.2% | 97.4% | 100% | 99.1% | 101% | 98% | 100% | 95.1% | > 10 µM | > 10 µM | > 10 µM | > 10 µM | > 10 µM | 0 | 0 | 0 | 0 | 0 |
| Cc1csc(S(=O)(=O)N(CC(C)C)c2cc3c(cc2OCc2ccc(C(=O)O)cc2)CCC3)n1 [ONO-8130] | 99% | 104% | 96.4% | 99.2% | 91.6% | 98.5% | 101% | 97.6% | 98.5% | 99.5% | 110% | 95.3% | 96.8% | 94.8% | 93.6% | 97.9% | 103% | 97.5% | 101% | 95.1% | 107% | 102% | 99.3% | 97% | 98.6% | > 10 µM | > 10 µM | > 10 µM | > 10 µM | > 10 µM | 0 | 0 | 0 | 0 | 0 |
| C[C@]12C/C(=C/O)C(=O)C[C@@H]1CC[C@@H]1[C@@H]2CC[C@@]2(C)[C@H]1CC[C@]2(C)O [Oxymetholone] | 100% | 87.8% | 102% | 90.4% | 96.1% | 117% | 97.6% | 97.3% | 102% | 101% | 101% | 108% | 96% | 111% | 96% | 102% | 97.8% | 99.6% | 97% | 98.1% | 97.4% | 101% | 106% | 104% | 96.3% | > 10 µM | > 10 µM | > 10 µM | > 10 µM | > 10 µM | 0 | 0 | 0 | 0 | 0 |
| O[C@@H](Cc1ccncc1)C(Cl)(Cl)Cl [PETCM] | 99.4% | 95.8% | 103% | 98.7% | 105% | 98.8% | 89.8% | 114% | 95.3% | 110% | 101% | 103% | 95.2% | 99.3% | 97.8% | 98.8% | 93.3% | 99.1% | 93.3% | 99.1% | 94.7% | 97.1% | 96% | 102% | 98.2% | > 10 µM | > 10 µM | > 10 µM | > 10 µM | > 10 µM | 0 | 0 | 0 | 0 | 0 |
| COc1ccc(Cl)cc1NC(=O)Nc1cc(C)nc2ccccc12 [PQ-401] | 93.8% | 97% | 108% | 97.6% | 77.8% | 106% | 93.4% | 107% | 94.9% | 100% | 99.1% | 106% | 92% | 103% | 80.3% | 98.2% | 98.5% | 100% | 101% | 86.1% | 96.4% | 95.3% | 92.8% | 96.4% | 90.8% | > 10 µM | > 10 µM | > 10 µM | > 10 µM | > 10 µM | 1.1 | 0 | 0.4 | 0.1 | 0 |
| O=C(Nc1ccc(Cl)cc1)Nc1cccc(-c2cccc(N3CCCC3)n2)c1 [PSNCBAM-1] | 98.3% | 91.9% | 96.2% | 93.7% | 99.4% | 102% | 98.9% | 95% | 97.9% | 104% | 101% | 110% | 102% | 102% | 99.1% | 98.8% | 102% | 96.6% | 98.7% | 102% | 108% | 96.7% | 102% | 105% | 91.8% | > 10 µM | > 10 µM | > 10 µM | > 10 µM | > 10 µM | 0 | 0 | 0 | 0 | 0 |
| CC(C)N(CCCNC(=O)Nc1ccc(C(C)(C)C)cc1)C[C@H]1O[C@@H](n2cc(Br)c3c(N)ncnc32)[C@H](O)[C@@H]1O [SGC-0946] | 91.2% | 98.7% | 101% | 103% | 101% | 96% | 106% | 93.9% | 101% | 95.2% | 92.1% | 96.6% | 106% | 104% | 96.6% | 92.3% | 102% | 99.7% | 112% | 107% | 94.4% | 95.7% | 93% | 97.6% | 110% | > 10 µM | > 10 µM | > 10 µM | > 10 µM | > 10 µM | 0 | 0 | 0 | 0 | 0 |
